This passage reports percent of control kinase binding to immobilized ligand results from US20220348565A1, “PHARMACEUTICAL COMPOUNDS” (SENTINEL ONCOLOGY LIMITED, priority 2019, published 2022).

Experiment in all cases: DiscoverX KinomeScreen kinase selectivity competition binding assay
Experiment [1] deals with T1, panel of ninety-seven kinases (Homo sapiens, UniProt O00750).
T1 construct: purchased DiscoverX; host or cells: T7 phage in E. coli (BL21-derived) for most kinases; HEK-293 for the rest
To be noted: PIK3C2B; read-out: % Ctrl @ 3 μM. The gist of the method: (§1)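 Site-directed competition binding: kinase (T7 phage-tagged or HEK-293-expressed, DNA-tagged) captured on immobilized biotinylated ligand beads, with compound at 3000 nM. Bound kinase eluted and quantified by qPCR. Reported as % Ctrl, with DMSO as 100% and control compound as 0%.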

In experiment [2] the target is T2, panel of ninety-seven kinases (Homo sapiens, UniProt O14920).
T2 construct: purchased DiscoverX; host or cells: T7 phage in E. coli (BL21-derived) for most kinases; HEK-293 for the rest
The following applies: IKBKB; read-out: % Ctrl @ 3 μM. The gist of the method:
as §1

Experiment [3] deals with T3, panel of ninety-seven kinases (Homo sapiens, UniProt O14965).
T3 construct: purchased DiscoverX; host or cells: T7 phage in E. coli (BL21-derived) for most kinases; HEK-293 for the rest
The following applies: AURKA; read-out: % Ctrl @ 3 μM. In a few lines: as §1

The target of experiment [4] is T4, panel of ninety-seven kinases (Homo sapiens, UniProt O15530).
T4 construct: purchased DiscoverX; host or cells: T7 phage in E. coli (BL21-derived) for most kinases; HEK-293 for the rest
To be noted: PDPK1; read-out: % Ctrl @ 3 μM. The gist of the method:
as §1

Experiment [5] addresses T5, panel of ninety-seven kinases (Homo sapiens, UniProt O96013).
T5 construct: purchased DiscoverX; host or cells: T7 phage in E. coli (BL21-derived) for most kinases; HEK-293 for the rest
The following applies: PAK4; read-out: % Ctrl @ 3 μM. The gist of the method: as §1

Experiment [6] has as its target T6, panel of ninety-seven kinases (Homo sapiens, UniProt P04049).
T6 construct: purchased DiscoverX; host or cells: T7 phage in E. coli (BL21-derived) for most kinases; HEK-293 for the rest
The following applies: RAF1; read-out: % Ctrl @ 3 μM. In a few lines: as §1

Experiment [7] deals with T7, panel of ninety-seven kinases (Homo sapiens, UniProt P04629).
T7 construct: purchased DiscoverX; host or cells: T7 phage in E. coli (BL21-derived) for most kinases; HEK-293 for the rest
The following applies: NTRK1; read-out: % Ctrl @ 3 μM. The gist of the method: as §1

Experiment [8] addresses T8, panel of ninety-seven kinases (Homo sapiens, UniProt P11309).
T8 construct: purchased DiscoverX; host or cells: T7 phage in E. coli (BL21-derived) for most kinases; HEK-293 for the rest
The following applies: PIM1; read-out: % Ctrl @ 3 μM. The gist of the method: as §1

For experiment [9], the target named is T9, panel of ninety-seven kinases (Homo sapiens, UniProt P17612).
T9 construct: purchased DiscoverX; host or cells: T7 phage in E. coli (BL21-derived) for most kinases; HEK-293 for the rest
The following applies: PRKACA; read-out: % Ctrl @ 3 μM. In a few lines:
as §1

Experiment [10] concerns the target T10, panel of ninety-seven kinases (Homo sapiens, UniProt P27361).
T10 construct: purchased DiscoverX; host or cells: T7 phage in E. coli (BL21-derived) for most kinases; HEK-293 for the rest
To be noted: MAPK3; read-out: % Ctrl @ 3 μM. In a few lines: as §1

Experiment [11] addresses T11, panel of ninety-seven kinases (Homo sapiens, UniProt P31749).
T11 construct: purchased DiscoverX; host or cells: T7 phage in E. coli (BL21-derived) for most kinases; HEK-293 for the rest
To be noted: AKT1; read-out: % Ctrl @ 3 μM. The gist of the method: as §1

Experiment [12] deals with T12, panel of ninety-seven kinases (Homo sapiens, UniProt P50613).
T12 construct: purchased DiscoverX; host or cells: T7 phage in E. coli (BL21-derived) for most kinases; HEK-293 for the rest
To be noted: CDK7; read-out: % Ctrl @ 3 μM. The gist of the method:
as §1

Experiment [13] concerns the target T13, panel of ninety-seven kinases (Homo sapiens, UniProt P51812).
T13 construct: purchased DiscoverX; host or cells: T7 phage in E. coli (BL21-derived) for most kinases; HEK-293 for the rest
The following applies: RPS6KA3; read-out: % Ctrl @ 3 μM. The gist of the method: as §1

In experiment [14] the target is T14, panel of ninety-seven kinases (Homo sapiens, UniProt P52333).
T14 construct: purchased DiscoverX; host or cells: T7 phage in E. coli (BL21-derived) for most kinases; HEK-293 for the rest
To be noted: JAK3; read-out: % Ctrl @ 3 μM. The gist of the method: as §1

Experiment [15] deals with T15, panel of ninety-seven kinases (Homo sapiens, UniProt P53779).
T15 construct: purchased DiscoverX; host or cells: T7 phage in E. coli (BL21-derived) for most kinases; HEK-293 for the rest
The following applies: MAPK10; read-out: % Ctrl @ 3 μM. In a few lines: as §1

Experiment [16] concerns the target T16, panel of ninety-seven kinases (Homo sapiens, UniProt Q02156).
T16 construct: purchased DiscoverX; host or cells: T7 phage in E. coli (BL21-derived) for most kinases; HEK-293 for the rest
The following applies: PRKCE; read-out: % Ctrl @ 3 μM. In a few lines:
as §1

For experiment [17], the target named is T17, panel of ninety-seven kinases (Homo sapiens, UniProt Q06187).
T17 construct: purchased DiscoverX; host or cells: T7 phage in E. coli (BL21-derived) for most kinases; HEK-293 for the rest
The following applies: BTK; read-out: % Ctrl @ 3 μM. The gist of the method:
as §1

For experiment [18], the target named is T18, panel of ninety-seven kinases (Homo sapiens, UniProt Q13153).
T18 construct: purchased DiscoverX; host or cells: T7 phage in E. coli (BL21-derived) for most kinases; HEK-293 for the rest
The following applies: PAK1; read-out: % Ctrl @ 3 μM. The gist of the method: as §1

Experiment [19] deals with T19, panel of ninety-seven kinases (Homo sapiens, UniProt Q86V86).
T19 construct: purchased DiscoverX; host or cells: T7 phage in E. coli (BL21-derived) for most kinases; HEK-293 for the rest
The following applies: PIM3; read-out: % Ctrl @ 3 μM. In a few lines:
as §1

For experiment [20], the target named is T20, panel of ninety-seven kinases (Homo sapiens, UniProt Q9P1W9).
T20 construct: purchased DiscoverX; host or cells: T7 phage in E. coli (BL21-derived) for most kinases; HEK-293 for the rest
To be noted: PIM2; read-out: % Ctrl @ 3 μM. In a few lines:
as §1

The target in experiment [21] is T21, panel of ninety-seven kinases (Homo sapiens, UniProt Q9Y6R4).
T21 construct: purchased DiscoverX; host or cells: T7 phage in E. coli (BL21-derived) for most kinases; HEK-293 for the rest
To be noted: MAP3K4; read-out: % Ctrl @ 3 μM. The gist of the method:
as §1

Regarding `CN(C)CCNC(=O)c1ccc(-c2ccc(-c3ccc(Cl)cc3)n2-c2ccccc2C(F)(F)F)cc1` (single isomer, unassigned) [Atropisomer A-2, 4-[5-(4-chlorophenyl)-1-[2-(trifluoromethyl)phenyl]pyrrol-2-yl]-N-[2-(dimethylamino)ethyl]benzamide], the percent of control kinase binding to immobilized ligand at 3 µM in experiment [1] came out at 100%; in experiment [2], 96%; in experiment [3], 98%; in [4], 96%; in experiment [5], 100%; in [6], 92%. The percent of control kinase binding to immobilized ligand at 3 µM in experiment [7] was determined as 100%; in [8] it was 99%; in experiment [9], 100%; in [10] it was 99%; in experiment [11], 98%; in experiment [12], 100%. In addition, the percent of control kinase binding to immobilized ligand at 3 µM in [13] was 100%; in [14] it was 100%; in experiment [15] it was 93%; in experiment [16], 99%; in [17], 94%; in [18], 87%. In addition, the percent of control kinase binding to immobilized ligand at 3 µM in experiment [19] came out at 98%; in experiment [20], 100%; in [21], 93%.
